“Also recorded” adds a separate entry of the source. Bridges are numbered along the chain shown (N, C = ends). [ ]: non-standard residue; d: D form. Ahx = NCCCCCC(=O)O
Legend:
p53-Mdm4 complexes [1] = biological target: T1, p53-Mdm4 complexes (Homo sapiens, UniProt O15151); experiment: Real-time BiLC (ReBiL) assay in living cells, p53-Mdm4 reporter (Saos-2 134-354)
T1 sequence (O15151 2-111): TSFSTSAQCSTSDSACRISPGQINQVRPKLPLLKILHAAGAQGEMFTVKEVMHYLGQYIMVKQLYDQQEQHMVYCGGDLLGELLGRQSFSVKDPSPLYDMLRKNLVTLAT

p53-Mdm4 complexes [2] = biological target: T1, p53-Mdm4 complexes; experiment: BiLC assay using cell lysates, p53-Mdm4; format: biochemical; design: 2-111) was cloned into pLi317; cLuc (C-terminal split firefly luciferase fragment, amino acids 398-550; expressed in transfected cells; host or cells: Saos-2 134-354 (single-copy RMCE integration, doxycycline-induced); the lysate assay text says Saos-2 or U2OS reporter cells; conditions: no FBS
Experimental: (A) Cell lysates obtained from nLuc-p53 and cLuc-Mdm2 or nLuc-p53 and cLuc-Mdm4 ReBiL expressing reporter cells were incubated with the indicated PPI antagonists in the absence of FBS in a 384-well plate at room temperature for 10 minutes. Steady-Glo luciferase reagent was added, and luminescence was measured in a Tecan M200 luminometer at 26° C. Data are shown as mean±standard deviation (n=3) and normalized to the luminescent reading of DMSO (set to 100%). (B) The BiLC lysate assays were identical to (A) except for the inclusion of 10% FBS. Data are shown as mean±standard deviation (n=3) and normalized to the luminescent reading of DMSO (set to 100%).
(§1) (A) Small molecule PPI antagonists were tested in p53-Mdm2 and p53-Mdm4 BiLC lysate assays without FBS. […] Data are shown as mean±standard deviation (n=3) and normalized to the luminescent reading of DMSO (set to 100%).
The 4× concentrated drugs diluted in DMEM/F12 media were pipetted into 384 well plates, 10 μl per well. Cells were washed with PBS-twice and lysed with PLB buffer (100 mM Tris-HCl pH 7.5; 0.5 mM EDTA; 150 mM NaCl; 0.1% Triton X-100, 1 mM sodium orthovanadate, 50 mM sodium fluoride, and Roche Complete Mini Protease Inhibitor Cocktail). […] The clear lysates were collected, diluted with DMEM (˜300 μl DMEM added into 100 μl lysates); 10 μl of diluted lysates were pipetted into each of the 384-wells, and the plates were incubated at room temperature for 10 minutes. 20 μl of luciferin reagents were added (Promega Bright-Glo E2620 or Steady-Glo E2520) into each well and luminescence was measured in a Tecan M200: integration time 0.5 seconds, 3˜5 minutes per cycle for total 30 minutes at 26° C.

p53-Mdm2 complexes [3] = biological target: T2, p53-Mdm2 complexes (Homo sapiens, UniProt Q00987); experiment: BiLC assay using cell lysates, p53-Mdm2; format: biochemical; conditions: no FBS
T2 construct: cLuc-linker-FLAG-Mdm2-108 (generated); cLuc (C-terminal split firefly luciferase fragment, amino acids 398-550); expressed in transfected cells; host or cells: Saos-2 134-385 (single-copy RMCE integration, doxycycline-induced); the lysate assay text says Saos-2 or U2OS reporter cells
Experimental: FIGS. 5A and 5B show a set of graphs illustrating that the BiLC lysate assay can be used to determine if serum prevents SAH peptides from disrupting p53-Mdm2 or p53-Mdm4 complexes. (A) Cell lysates obtained from nLuc-p53 and cLuc-Mdm2 or nLuc-p53 and cLuc-Mdm4 ReBiL expressing reporter cells were incubated with the indicated PPI antagonists in the absence of FBS in a 384-well plate at room temperature for 10 minutes. Steady-Glo luciferase reagent was added, and luminescence was measured in a Tecan M200 luminometer at 26° C. Data are shown as mean±standard deviation (n=3) and normalized to the luminescent reading of DMSO (set to 100%). (B) The BiLC lysate assays were identical to (A) except for the inclusion of 10% FBS. Data are shown as mean±standard deviation (n=3) and normalized to the luminescent reading of DMSO (set to 100%).
as §1
The 4× concentrated drugs diluted in DMEM/F12 media were pipetted into 384 well plates, 10 μl per well. […] 20 μl of luciferin reagents were added (Promega Bright-Glo E2620 or Steady-Glo E2520) into each well and luminescence was measured in a Tecan M200: integration time 0.5 seconds, 3˜5 minutes per cycle for total 30 minutes at 26° C.

[4] = test system: Normal human fibroblasts (WS1 cells); experiment: Lactate dehydrogenase (LDH) leakage assay, WS1 fibroblasts; format: cell-based; conditions: 25 μM and 10 μM, 6 hours, no serum
Text: (§2) Accumulation of cytoplasmic lactate dehydrogenase (LDH) in the growth medium was used as a metric of cell membrane damage. LDH was detected by the CytoTox 96 Non-Radioactive Cytotoxicity Assay Kit (Promega). The 0.8% Triton X-100 treatment (Lysed) represents the maximum LDH leakage in this experiment and its reading was set to 100%. DMSO treatment served as the vehicle control and provided an indication of the presence of trace amounts of LDH in the serum and spontaneous LDH leakage from cells. The value obtained in the presence of DMSO was set to 0%. Data are shown as mean±SD (n=3). (B) Normal human fibroblasts (WS 1 cells) were treated exactly as in (A). Data are shown as mean±SD (n=3).S
(§3) Saos-2 and WS 1 cells were seeded into 96-well plates (20,000 cells per well) and incubated at 37° C. […] LDH leakage into media was detected by the CytoTox 96 Non-Radioactive Cytotoxicity Assay Kit (Promega G1780) per manufacture's protocol. Assay background was evaluated by using the LDH reading from wells containing only media and PPI antagonists with or without 10% FBS and was subtracted from the values obtained in the presence of the PPI antagonists. Cells lysed by 0.8% Triton X-100 (provided by the Kit), a concentration sufficient to ensure lyse all cells but low enough not to interfere with the LDH assay, represents the maximum LDH leakage in this experiment and its reading is set to 100%. […]

Saos-2 cells = experiment: Lactate dehydrogenase (LDH) leakage assay, Saos-2 cells; conditions: 25 μM and 10 μM, 6 hours, no serum
Text: as §2, §3

p53-Mdm2 complexes [5] = biological target: T2, p53-Mdm2 complexes; experiment: Real-time BiLC (ReBiL) assay in living cells, p53-Mdm2 reporter (Saos-2 134-385); format: cell-based
Experimental: Data shown are mean±standard deviation (n=8). […] Actin was used as a loading control. […] Luminescent signals were measured every 10 minutes for 10 hours in a Tecan-M200 at 37° C. Data shown are mean±standard deviation (n=4). […] The nLuc-p53 and cLuc-Mdm2 fusion proteins were detected by anti-FLAG and anti-HA antibodies, respectively, and Actin was used as a loading control.
At Time=0, the cells were washed with Dulbecco's modified Eagle medium (DMEM) once, and treated with new media containing different PPI antagonists and with or without 10% fetal bovine serum (FBS).
Two strategies were used to avert cytotoxicity or cell cycle arrest that could be generated by wild type p53 activation. First, p53 null Saos-2 cells were used as the host cell line for ReBiL reporters.
The Saos-2 ReBiL reporter cells were washed, trypsinized and cell numbers were determined. […] Supernatants were discarded, ReBiL reporter cells were resuspended with DMEM/F12 (phenol-red free) and 20 μl cells were pipetted into each well. […]
(a) The following protocol was used to evaluate small molecule PPI antagonists. […] The next day, the cells were washed, trypsinized, and cell numbers were determined. […] The plate was sealed with a MicroAmp Optical Adhesive Film, and luminescence was measured in a Tecan M200: integration time 2 seconds, 5˜10 minutes per cycle for total 6 hours at 37° C.

[6] = biological target: T3, Mdm2-Mdm4 N-terminal BiLC pair (Homo sapiens, UniProt O15151+Q00987); experiment: Real-time BiLC assay in U2OS Mdm4-111/Mdm2-108 ReBiL reporter cells (U2OS 134-544); format: cell-based; conditions: U2OS 134-544 cells, compound with doxycycline at Time=0, 24 hours
T3 construct: linker-FLAG-Mdm2-108 (generated by; 2-111) was cloned into pLi223; cLuc (split firefly luciferase amino acids 398-550); nLuc (split firefly luciferase amino acids 1-416); expressed in transfected cells; host or cells: U2OS 134-544 (RMCE integration, doxycycline-induced)
Text: Data are shown as mean±standard deviation (n=6). […] Data are shown as mean±standard deviation (n=4).

[7] = living Saos-2 cells, doxycycline withdrawal, small molecule protocol

T2 sequence (Q00987 2-108, one chain of several): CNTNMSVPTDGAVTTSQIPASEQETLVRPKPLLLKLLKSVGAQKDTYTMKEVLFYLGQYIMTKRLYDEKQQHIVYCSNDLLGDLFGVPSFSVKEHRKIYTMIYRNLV
T3 sequence (Q00987 2-108, one chain of several): as above

| Compound | p53-Mdm4 disruption in lysate BiLC assay, without FBS (p53-Mdm4 complexes [2]) | p53-Mdm2 disruption in lysate BiLC assay, without FBS (p53-Mdm2 complexes [3]) | LDH leakage (cell membrane damage), absence of serum (Saos-2 cells) | further results |
| --- | --- | --- | --- | --- |
| CCOc1cc(/C=C2/C(=O)N(c3ccccc3)N=C2C)cc(Cl)c1OCC(=O)OC [SJ-172550] | no activity; also recorded: poor p53/Mdm4 antagonist | no activity | – | p53-Mdm4 BiLC signal (newly synthesized complexes) (p53-Mdm4 complexes [1]; living Saos-2 134-354 cells, compound added with doxycycline at Time=0, 10% FBS): No decrease in p53-Mdm4 luciferase signal was detected; also recorded: virtually no activity |
| COc1ccc(C2=N[C@@H](c3ccc(Cl)cc3)[C@@H](c3ccc(Cl)cc3)N2C(=O)N2CCNC(=O)C2)c(OC(C)C)c1 [Nutlin-3a] | – | – | failed to induce membrane leakage | LDH leakage (cell membrane damage), absence of serum [4]: failed to induce membrane leakage |
| MI-219 | – | – | – | Ability to interfere selectively with p53-Mdm2 interaction (p53-Mdm2 complexes [5]; ReBiL strategy): interfere selectively with p53-Mdm2 interaction was confirmed |
| cyclo(ACICRGNGYCG[Ahx]TSFAEYWNLLSGVCPKILQRCRRDSDCPG) (disulfide 2-26, 4-33, 10-39) [McoTi-1-PMI] | – | – | all except one (McoTi-1-PMI), damage cell membranes | – |
| RO-5963 | no activity | no activity | – | Disruption of pre-formed p53-Mdm2 BiLC complexes (p53-Mdm2 complexes [5]; [7]): did not efficiently disrupt; Mdm2-Mdm4 N-terminal domain association (luminescent signal) [6]: increased luminescent signals were detected; Disruption of pre-formed p53-Mdm4 BiLC complexes (p53-Mdm4 complexes [1]; [7]): did not efficiently disrupt |

From patent publication US20150010932A1, “METHODS FOR ASSAYING PROTEIN-PROTEIN INTERACTIONS” (Salk Institute for Biological Studies, priority 2013, published 2015)
